Measured values as given in ChEMBL document CHEMBL5236579, “Hydrophobicity Determines the Bacterial Killing Rate of α-Helical Antimicrobial Peptides and Influences the Bacterial Resistance Development” (J Med Chem, 2022).
Values after ≈ are worked out from the molar mass of the structure shown. Active and inactive are the calls of the source. The rule behind the calls is not given here. Where a SMILES comes first, the peptide text is derived from it.

Experiments:
[1] = system: Vibrio parahaemolyticus; test: Bactericidal activity against Vibrio parahaemolyticus ATCC17802 assessed as killing rate at 0.5 X MIC by measuring time limit of detection by bacterial killing kinetic assay; type: functional
[2] = system: Vibrio parahaemolyticus; test: Antimicrobial activity against Vibrio parahaemolyticus ATCC17802 by two fold broth microdilution method; type: functional
[3] = system: Staphylococcus aureus; test: Bactericidal activity against Staphylococcus aureus ATCC25923 assessed as killing rate at 0.5 X MIC measured upto 180 min by bacterial killing kinetic assay; type: functional, organism-based
[4] = system: Staphylococcus aureus; test: Antimicrobial activity against Staphylococcus aureus ATCC25923 by two fold broth microdilution method; type: functional; details: read-out: MIC
[5] = system: Escherichia coli; test: Antimicrobial activity against Escherichia coli ATCC27622 by two fold broth microdilution method; type: functional
[6] = system: Bacillus cereus; test: Antimicrobial activity against clinical isolates Bacillus cereus by two fold broth microdilution method; type: functional
[7] = system: Escherichia coli; test: Bactericidal activity against Escherichia coli ATCC25722 assessed as killing rate at 0.5 X MIC measured upto 180 min by bacterial killing kinetic assay; type: functional, organism-based
[8] = system: Staphylococcus aureus; test: Antimicrobial activity against clinical isolates Staphylococcus aureus by two fold broth microdilution method; type: functional
[9] = system: Vibrio parahaemolyticus; test: Induction of morphological changes in Vibrio parahaemolyticus ATCC17802 assessed as surface fibrosis incubated at 5 times MIC and measured after 180 mins by scanning electron microscopy based analysis; type: functional, organism-based
[10] = system: Cell membrane; test: Induction of outer membrane permeabilization in Vibrio parahaemolyticus ATCC17802 assessed as increase fluorescence intensity at 0.5 to 2 times of MIC by NPN uptake assay; type: cell membranes; details: time <= 15.0 min, TDE = time-dependent effect
[11] = Hemolytic activity in human erythrocytes measured after 30 mins; type: toxicity, cell-based; details: erythrocyte, 0.5 h
[12] = system: Lipopolysaccharide (LPS); test: Binding affinity to Escherichia coli LPS assessed as dissociation constant measured upto 600 sec by surface plasmon resonance imaging method
[13] = system: Cell membrane; test: Induction of outer membrane permeabilization in Escherichia coli ATCC25722 assessed as increase fluorescence intensity at 0.5 to 2 times of MIC by NPN uptake assay; type: cell membranes; details: time <= 15.0 min, TDE = time-dependent effect
[14] = system: Vibrio parahaemolyticus; test: Induction of morphological changes in Vibrio parahaemolyticus ATCC17802 assessed as massive cell collapse incubated at 5 times MIC and measured after 180 mins by scanning electron microscopy based analysis; type: functional, organism-based
[15] = Effect on morphological changes in POPC/POPG (3:1) bilayer membrane assessed as formation of bulge aggregates by measuring the height of bulges at 2 ug/ml incubated for 40 mins under neutral pH and low ionic strength by atomic force microscopic analysis; type: cell membranes; details: Cell membrane, dose 2.0 µg/ml
[16] = system: Vibrio parahaemolyticus; test: Induction of morphological changes in Vibrio parahaemolyticus ATCC17802 assessed as cellular inclusion leakage incubated at 5 times MIC and measured after 180 mins by scanning electron microscopy based analysis; type: functional, organism-based
[17] = system: Vibrio parahaemolyticus; test: Induction of bacterial resistance in Vibrio parahaemolyticus ATCC17802 assessed as fold increase in MIC treated over 30 serial passages measured after 24 hrs; type: functional
[18] = system: Cell membrane; test: Induction of inner membrane permeabilization in Vibrio parahaemolyticus ATCC17802 at 5 times MIC measured upto 200 mins by propidium iodide penetration assay; type: cell membranes
[19] = system: Cell membrane; test: Binding affinity to Vibrio parahaemolyticus ATCC17802 cell membrane assessed as increase in fluorescence intensity measured after 120 mins by flow cytometry analysis (reference value: 1.88%); type: cell membranes
[20] = system: Cell membrane; test: Induction of cytoplasmic membrane permeabilization in Vibrio parahaemolyticus […] assessed as calcein transmembrane diffusion into interior of gaint unilamellar vesicles by measuring time to equilibrium between inside and outside of vesicles at 2 ug/mL by confocal microscopy based calcein-AM leakage assay; type: cell membranes; details: dose 2.0 µg/ml
[21] = system: Cell membrane; test: Induction of outer membrane permeabilization in Escherichia coli ATCC25722 assessed as increase fluorescence intensity measured upto 15 mins by NPN uptake assay; type: cell membranes
[22] = system: Cell membrane; test: Induction of inner membrane permeabilization in Vibrio parahaemolyticus ATCC17802 assessed as increase in PI fluorescence intensity at 5 times MIC by propidium iodide penetration assay; type: cell membranes; details: time <= 200.0 min
[23] = system: Cell membrane; test: Induction of outer membrane permeabilization in Vibrio parahaemolyticus ATCC17802 assessed as increase fluorescence intensity measured upto 15 mins by NPN uptake assay; type: cell membranes
[24] = system: Escherichia coli; test: In vivo antibacterial activity against Escherichia coli ATCC25722 infected in Balb/c mouse model assessed as reduction in bacterial CFU count on skin at 20 ug/ml applied 4 hrs after infection and measured after 120 mins; type: functional, organism-based; details: dose 20.0 µg/ml
[25] = system: Peritoneal macrophage; test: Cytotoxicity against mouse peritoneal macrophage cells incubated for 48 hrs by MTT assay; type: toxicity, cell-based; details: dose < 250 µg/ml
[26] = system: Cell membrane; test: Binding affinity to Vibrio parahaemolyticus ATCC17802 cell membrane assessed as increase in fluorescence intensity measured after 30 mins by flow cytometry analysis (reference value: 1.85%); type: cell membranes
[27] = system: Lipopolysaccharide (LPS); test: Binding affinity to Escherichia coli LPS assessed as LPS neutralizing activity measured after 5 mins by LPS neutralization assay
[28] = system: HaCaT; test: Cytotoxicity against human HaCaT cells incubated for 48 hrs by MTT assay; type: toxicity, cell-based; details: dose < 250 µg/ml
[29] = system: Lipopolysaccharide (LPS); test: Binding affinity to Escherichia coli LPS assessed as LPS neutralizing activity measured after 60 mins by LPS neutralization assay
[30] = system: Escherichia coli; test: In vivo antibacterial activity against Escherichia coli ATCC25722 infected in Balb/c mouse model assessed as reduction in bacterial CFU count on skin at 20 ug/ml incubated for 6 hrs post infection and measured after 2 hrs post compound treatment; type: functional, organism-based; details: dose 20.0 µg/ml, time 8.0 hrs

CC[C@H](C)[C@H](NC(=O)[C@H](CCCCN)NC(=O)[C@H](CCCCN)NC(=O)[C@H](CC(C)C)NC(=O)[C@H](CCCCN)NC(=O)[C@H](CCCCN)NC(=O)[C@H](CC(C)C)NC(=O)[C@@H](NC(=O)[C@H](CCCCN)NC(=O)[C@H](CCCCN)NC(=O)[C@H](Cc1c[nH]c2ccccc12)NC(=O)[C@H](Cc1ccccc1)NC(=O)[C@H](CCCCN)NC(=O)[C@H](CCCNC(=N)N)NC(=O)[C@H](CCCNC(=N)N)NC(=O)[C@@H](N)CCCCN)C(C)C)C(=O)N[C@@H](CC(C)C)C(=O)O (H-KRRKFWKKVLKKLKKIL-OH)
Time [1]: 15 min | MIC [2]: 2.34 µg/mL (≈ 1.04 µM) | Activity [3]: Active | MIC [4]: 2.34 µg/mL (≈ 1.04 µM) | MIC [5]: 4.69 µg/mL (≈ 2.09 µM) | MIC [6]: 4.69 µg/mL (≈ 2.09 µM) | Activity [7]: Active | MIC [8]: 9.38 µg/mL (≈ 4.19 µM)

CC[C@H](C)[C@H](NC(=O)[C@H](CCCCN)NC(=O)[C@H](CCCCN)NC(=O)[C@H](C)NC(=O)[C@H](CCCCN)NC(=O)[C@H](CCCCN)NC(=O)[C@H](CC(C)C)NC(=O)[C@@H](NC(=O)[C@H](CCCCN)NC(=O)[C@H](CCCCN)NC(=O)[C@H](Cc1c[nH]c2ccccc12)NC(=O)[C@H](Cc1ccccc1)NC(=O)[C@H](CCCCN)NC(=O)[C@H](CCCNC(=N)N)NC(=O)[C@H](CCCNC(=N)N)NC(=O)[C@@H](N)CCCCN)C(C)C)C(=O)N[C@@H](C)C(=O)O (H-KRRKFWKKVLKKAKKIA-OH)
Time [1]: >180 min | MIC [2]: 4.69 µg/mL (≈ 2.17 µM) | Activity [3]: Active | MIC [4]: 2.34 µg/mL (≈ 1.08 µM) | MIC [5]: 9.38 µg/mL (≈ 4.35 µM) | MIC [6]: 4.69 µg/mL (≈ 2.17 µM) | Activity [7]: Active | MIC [8]: 18.8 µg/mL (≈ 8.69 µM)

CC[C@H](C)[C@H](NC(=O)[C@H](CCCCN)NC(=O)[C@H](CCCNC(=N)N)NC(=O)[C@H](CC(C)C)NC(=O)[C@H](CC(C)C)NC(=O)[C@H](CCCCN)NC(=O)[C@H](CCCCN)NC(=O)[C@H](Cc1ccccc1)NC(=O)[C@H](CC(C)C)NC(=O)CNC(=O)[C@@H](N)CCCNC(=N)N)C(=O)N[C@@H](CCCCN)C(=O)N[C@@H](CCCCN)C(=O)NCC(=O)N[C@@H](Cc1ccccc1)C(=O)N[C@@H](CCCCN)C(=O)N[C@@H](CCCCN)C(=O)O (H-RGLFKKLLRKIKKGFKK-OH)
Activity [9]: Active | Activity [10]: Tde | Activity [11]: Toxic | Time [1]: 120 min | Kd [12]: 23.5 µM | MIC [2]: 4.69 µg/mL (≈ 2.25 µM) | Activity [13]: Tde | MIC [4]: 2.34 µg/mL (≈ 1.12 µM) | Activity [14]: Active | Activity [15]: 1 nm | MIC [5]: 4.69 µg/mL (≈ 2.25 µM) | Activity [16]: Active | fold change (FC) [17]: 16 | Activity [18]: Active | MIC [6]: 9.38 µg/mL (≈ 4.49 µM) | Activity [19]: 99.5% | TIME [20]: 1 h | Activity [21]: Dose-Dependent Effect | Activity [22]: Active | Activity [23]: Dose-Dependent Effect | Activity [24]: inactive | Activity [25]: Dose-Dependent Effect | Activity [26]: 20.6% | MIC [8]: 18.8 µg/mL (≈ 8.98 µM) | Activity [27]: inactive | Activity [28]: Dose-Dependent Effect | Activity [29]: Active | Activity [30]: Active
